According to publication PMC4620497 (Scientific Reports, 2015):

What was measured:
ERN1 = ERN1 (Homo sapiens, UniProt O75460); parameters: method as in earlier work; conditions: Table S1; cited from earlier work
ALK = biological target: T1, ALK (Homo sapiens, UniProt Q9UM73); assay: KINOMEscan panel screen; type: binding; conditions: read-out: Percent Control(%)
T1 construct: purchased DiscoveRx KINOMEscan (Ambit Biosciences)

PAK4 = biological target: T2, PAK4 (Homo sapiens, UniProt O96013); assay: KINOMEscan kinase binding assay (Kd)
T2 construct: DNA tag (qPCR read-out); purchased Ambit Biosciences (KINOMEscan service)
T2 sequence (O96013 whole entry): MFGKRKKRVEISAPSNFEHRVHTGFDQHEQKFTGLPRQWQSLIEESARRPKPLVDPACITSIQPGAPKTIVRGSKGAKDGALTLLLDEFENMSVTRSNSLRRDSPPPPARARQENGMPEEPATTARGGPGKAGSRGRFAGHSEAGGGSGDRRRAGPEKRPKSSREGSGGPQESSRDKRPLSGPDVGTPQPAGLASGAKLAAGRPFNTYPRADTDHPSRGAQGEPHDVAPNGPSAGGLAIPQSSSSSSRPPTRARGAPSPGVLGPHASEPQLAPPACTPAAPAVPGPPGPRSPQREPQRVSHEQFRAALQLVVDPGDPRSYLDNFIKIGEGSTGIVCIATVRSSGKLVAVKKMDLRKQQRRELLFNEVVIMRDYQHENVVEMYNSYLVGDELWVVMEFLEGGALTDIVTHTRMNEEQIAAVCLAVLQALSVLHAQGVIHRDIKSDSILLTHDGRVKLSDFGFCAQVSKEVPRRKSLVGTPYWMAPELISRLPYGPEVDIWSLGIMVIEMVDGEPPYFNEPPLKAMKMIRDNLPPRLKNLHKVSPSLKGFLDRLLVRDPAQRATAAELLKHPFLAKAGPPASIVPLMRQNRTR

DCAMKL1 = biological target: T3, DCAMKL1 (Homo sapiens, UniProt O15075); assay: KINOMEscan panel screen; type: binding; conditions: read-out: Percent Control(%)
T3 construct: purchased DiscoveRx KINOMEscan (Ambit Biosciences)

EPHA6 = biological target: T4, EPHA6 (Homo sapiens, UniProt Q9UF33); assay: KINOMEscan panel screen; type: binding; conditions: read-out: Percent Control(%)
T4 construct: purchased DiscoveRx KINOMEscan (Ambit Biosciences)
T4 sequence (Q9UF33 23-1036): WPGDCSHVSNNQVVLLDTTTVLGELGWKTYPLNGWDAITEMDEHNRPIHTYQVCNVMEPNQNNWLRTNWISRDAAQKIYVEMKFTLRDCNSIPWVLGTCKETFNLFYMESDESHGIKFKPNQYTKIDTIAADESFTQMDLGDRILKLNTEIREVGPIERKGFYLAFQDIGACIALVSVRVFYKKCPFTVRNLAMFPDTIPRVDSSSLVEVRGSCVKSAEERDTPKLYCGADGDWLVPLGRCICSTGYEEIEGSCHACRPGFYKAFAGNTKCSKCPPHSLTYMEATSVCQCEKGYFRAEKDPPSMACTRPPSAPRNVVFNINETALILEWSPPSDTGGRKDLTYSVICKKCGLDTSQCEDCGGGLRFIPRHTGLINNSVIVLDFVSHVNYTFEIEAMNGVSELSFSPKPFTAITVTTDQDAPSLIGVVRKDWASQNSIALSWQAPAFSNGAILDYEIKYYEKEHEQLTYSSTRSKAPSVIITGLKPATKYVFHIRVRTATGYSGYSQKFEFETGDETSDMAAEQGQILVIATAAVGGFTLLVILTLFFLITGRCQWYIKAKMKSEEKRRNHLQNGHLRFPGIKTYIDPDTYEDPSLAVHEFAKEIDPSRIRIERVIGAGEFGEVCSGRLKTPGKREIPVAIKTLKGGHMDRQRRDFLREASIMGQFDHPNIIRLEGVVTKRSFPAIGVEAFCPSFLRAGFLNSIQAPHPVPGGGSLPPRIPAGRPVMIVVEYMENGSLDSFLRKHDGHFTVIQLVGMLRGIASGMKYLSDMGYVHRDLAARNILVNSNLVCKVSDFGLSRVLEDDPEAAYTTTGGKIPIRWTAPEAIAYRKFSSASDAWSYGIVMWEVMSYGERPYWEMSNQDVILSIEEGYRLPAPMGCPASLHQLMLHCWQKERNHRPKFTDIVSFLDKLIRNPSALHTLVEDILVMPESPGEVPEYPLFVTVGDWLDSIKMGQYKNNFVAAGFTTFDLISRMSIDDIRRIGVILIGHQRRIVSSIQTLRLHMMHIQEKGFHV

BMPR1A = biological target: T5, BMPR1A (Homo sapiens, UniProt P36894); assay: KINOMEscan panel screen; type: binding; conditions: read-out: Percent Control(%)
T5 construct: purchased DiscoveRx KINOMEscan (Ambit Biosciences)

TEC = biological target: T6, TEC (Homo sapiens, UniProt P42680); assay: KINOMEscan panel screen; type: binding; conditions: read-out: Percent Control(%)
T6 construct: purchased DiscoveRx KINOMEscan (Ambit Biosciences)

MRCKB = biological target: T7, MRCKB (Homo sapiens, UniProt Q9Y5S2); assay: KINOMEscan panel screen; type: binding; conditions: read-out: Percent Control(%)
T7 construct: purchased DiscoveRx KINOMEscan (Ambit Biosciences)

MARK2 = biological target: T8, MARK2 (Homo sapiens, UniProt Q7KZI7); assay: KINOMEscan panel screen; type: binding; conditions: read-out: Percent Control(%)
T8 construct: purchased DiscoveRx KINOMEscan (Ambit Biosciences)

ASK2 = biological target: T9, ASK2 (Homo sapiens, UniProt O95382); assay: KINOMEscan panel screen; type: binding; conditions: read-out: Percent Control(%)
T9 construct: purchased DiscoveRx KINOMEscan (Ambit Biosciences)

[1] = biological target: T10, TYK2(JH2domain-pseudokinase) (Homo sapiens, UniProt P29597); assay: KINOMEscan panel screen; type: binding; conditions: read-out: Percent Control(%)
T10 construct: TYK2(JH2domain-pseudokinase); purchased DiscoveRx KINOMEscan (Ambit Biosciences)

PIK3C2B = biological target: T11, PIK3C2B (Homo sapiens, UniProt O00750); assay: KINOMEscan panel screen; type: binding; conditions: read-out: Percent Control(%)
T11 construct: purchased DiscoveRx KINOMEscan (Ambit Biosciences)

CAMK1D = biological target: T12, CAMK1D (Homo sapiens, UniProt Q8IU85); assay: KINOMEscan panel screen; type: binding; conditions: read-out: Percent Control(%)
T12 construct: purchased DiscoveRx KINOMEscan (Ambit Biosciences)

PIK3CA(H1047L) = biological target: T13, PIK3CA(H1047L) (Homo sapiens, UniProt P42336, H1047L); assay: KINOMEscan panel screen; type: binding; conditions: read-out: Percent Control(%)
T13 construct: purchased DiscoveRx KINOMEscan (Ambit Biosciences)

RIOK2 = biological target: T14, RIOK2 (Homo sapiens, UniProt Q9BVS4); assay: KINOMEscan panel screen; type: binding; conditions: read-out: Percent Control(%)
T14 construct: purchased DiscoveRx KINOMEscan (Ambit Biosciences)

CSNK1A1 = biological target: T15, CSNK1A1 (Homo sapiens, UniProt P48729); assay: KINOMEscan panel screen; type: binding; conditions: read-out: Percent Control(%)
T15 construct: purchased DiscoveRx KINOMEscan (Ambit Biosciences)

CSNK1D = biological target: T16, CSNK1D (Homo sapiens, UniProt P48730); assay: KINOMEscan panel screen; type: binding; conditions: read-out: Percent Control(%)
T16 construct: purchased DiscoveRx KINOMEscan (Ambit Biosciences)

primary AML PBMCs = assay: Long-term culture-initiating cell (LTC-IC) assay; type: cell-based, human
Method: (§1) In addition to the SP cell assay, we also evaluated the effects of SKLB-677 on the long-term culture-initiating (LTC-IC) cells; the long-term culture of LTC-IC cells can be used as surrogate markers of self-renewal capacity. SKLB-677 treated primary AML PBMCs or normal PBMCs were co-cultured with M2-10B4 stromal cells for 6 weeks, and then the colony formation capacity of LTC-IC cells were determined. In this assay, three primary AML PBMC samples and three normal PBMC samples were included, and each sample was conducted in triplicate.
(§2) PBMCs from AML patients (n = 3) and normal people (n = 3) were plated on M2-10B4 feeder cell layers (irradiated with 8000cGy) established in 6-well plates in HLTM medium (Myelocult H5100, […]) freshly supplemented with 10^−6 M hydrocortisone ([…]). Cultures were maintained with 0.1% DMSO or SKLB-677 for […] with weekly half-media changes, before seeding harvested cells into Colony-forming unit assays (cells were seeded in ultra-low attachment 6-well plates (Corning) in triplicate with the complete MethoCult Media ([…]) for 14 days). The assay for each sample was performed in triplicate. The colonies were counted under a microscope, and an obvious and visible cell cluster was considered a colony. The representative images were taken on an Axiovert 200 microscope with an AxiocamMRm camera with 0.30 aperture. Image acquisition software: AxioVisionRell 4.8.
(§3) Figure 4 The in vitro effects of SKLB-677 on leukemia side population (SP) cells and leukemia-initiating cells (LICs). (a) MV4-11 cells were stained with Hoechst 33342 after a treatment of SKLB-677 for 12 h. […] (b) The separated PBMCs were incubated on M2-10B4 stromal cells with SKLB-677 (1 nM and 10 nM for primary AML PBMCs, 10 nM and 50 nM for normal PBMCs) and/or 0.1% DMSO and then half medium replaced weekly for six weeks in long-term culture-initiating cells (LTC-IC) assays. Representative CAFCs (cobble stone area forming cells, the clusters of LTC-IC cells) are shown (left, black arrows).

normal PBMCs = assay: Long-term culture-initiating cell (LTC-IC) assay; type: cell-based, human; conditions: 10 nM and 50 nM
Method: as §1, §2, §3

HIPK1 = biological target: T17, HIPK1 (Homo sapiens, UniProt Q86Z02); assay: KINOMEscan panel screen; type: binding; conditions: read-out: Percent Control(%)
T17 construct: purchased DiscoveRx KINOMEscan (Ambit Biosciences)

INSRR = biological target: T18, INSRR (Homo sapiens, UniProt P14616); assay: KINOMEscan panel screen; type: binding; conditions: read-out: Percent Control(%)
T18 construct: purchased DiscoveRx KINOMEscan (Ambit Biosciences)

[2] = biological target: T19, JAK1(JH2domain-pseudokinase) (Homo sapiens, UniProt P23458); assay: KINOMEscan panel screen; type: binding; conditions: read-out: Percent Control(%)
T19 construct: JAK1(JH2domain-pseudokinase); purchased DiscoveRx KINOMEscan (Ambit Biosciences)

ADCK3 = biological target: T20, ADCK3 (Homo sapiens, UniProt Q8NI60); assay: KINOMEscan panel screen; type: binding; conditions: read-out: Percent Control(%)
T20 construct: purchased DiscoveRx KINOMEscan (Ambit Biosciences)
T20 sequence (Q8NI60 163-647): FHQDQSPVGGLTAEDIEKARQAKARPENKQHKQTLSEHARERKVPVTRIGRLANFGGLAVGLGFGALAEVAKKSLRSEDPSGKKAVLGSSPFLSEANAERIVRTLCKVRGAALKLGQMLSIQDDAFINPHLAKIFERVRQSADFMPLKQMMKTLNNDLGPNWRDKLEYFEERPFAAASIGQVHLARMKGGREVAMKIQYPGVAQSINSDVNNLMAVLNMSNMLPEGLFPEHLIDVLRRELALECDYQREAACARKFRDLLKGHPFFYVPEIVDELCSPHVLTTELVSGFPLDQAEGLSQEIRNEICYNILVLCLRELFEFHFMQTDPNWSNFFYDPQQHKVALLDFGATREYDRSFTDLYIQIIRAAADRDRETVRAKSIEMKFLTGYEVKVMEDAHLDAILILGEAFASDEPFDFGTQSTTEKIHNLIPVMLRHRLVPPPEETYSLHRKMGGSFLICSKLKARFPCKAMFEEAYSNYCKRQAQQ

THP-1 = assay: MTT cell viability assay; conditions: Homo sapiens, THP-1, 72 h
QSK = biological target: T21, QSK (Homo sapiens, UniProt Q9Y2K2); assay: KINOMEscan panel screen; type: binding; conditions: read-out: Percent Control(%)
T21 construct: purchased DiscoveRx KINOMEscan (Ambit Biosciences)

FLT3(K663Q) = biological target: T22, FLT3(K663Q) (Homo sapiens, UniProt P36888, K663Q); assay: KINOMEscan panel screen; type: binding; conditions: read-out: Percent Control(%)
T22 construct: purchased DiscoveRx KINOMEscan (Ambit Biosciences)

AURKC = biological target: T23, AURKC (Homo sapiens, UniProt Q9UQB9); assay: KINOMEscan panel screen; type: binding; conditions: read-out: Percent Control(%)
T23 construct: purchased DiscoveRx KINOMEscan (Ambit Biosciences)

PDGFRβ = biological target: T24, PDGFRβ (Homo sapiens, UniProt P09619); assay: KINOMEscan kinase binding assay (Kd)
T24 construct: purchased Ambit Biosciences (KINOMEscan)

MLK1 = biological target: T25, MLK1 (Homo sapiens, UniProt P80192); assay: KINOMEscan panel screen; type: binding; conditions: read-out: Percent Control(%)
T25 construct: purchased DiscoveRx KINOMEscan (Ambit Biosciences)

CIT = biological target: T26, CIT (Homo sapiens, UniProt O14578); assay: KINOMEscan panel screen; type: binding; conditions: read-out: Percent Control(%)
T26 construct: purchased DiscoveRx KINOMEscan (Ambit Biosciences)
T26 sequence (O14578 whole entry): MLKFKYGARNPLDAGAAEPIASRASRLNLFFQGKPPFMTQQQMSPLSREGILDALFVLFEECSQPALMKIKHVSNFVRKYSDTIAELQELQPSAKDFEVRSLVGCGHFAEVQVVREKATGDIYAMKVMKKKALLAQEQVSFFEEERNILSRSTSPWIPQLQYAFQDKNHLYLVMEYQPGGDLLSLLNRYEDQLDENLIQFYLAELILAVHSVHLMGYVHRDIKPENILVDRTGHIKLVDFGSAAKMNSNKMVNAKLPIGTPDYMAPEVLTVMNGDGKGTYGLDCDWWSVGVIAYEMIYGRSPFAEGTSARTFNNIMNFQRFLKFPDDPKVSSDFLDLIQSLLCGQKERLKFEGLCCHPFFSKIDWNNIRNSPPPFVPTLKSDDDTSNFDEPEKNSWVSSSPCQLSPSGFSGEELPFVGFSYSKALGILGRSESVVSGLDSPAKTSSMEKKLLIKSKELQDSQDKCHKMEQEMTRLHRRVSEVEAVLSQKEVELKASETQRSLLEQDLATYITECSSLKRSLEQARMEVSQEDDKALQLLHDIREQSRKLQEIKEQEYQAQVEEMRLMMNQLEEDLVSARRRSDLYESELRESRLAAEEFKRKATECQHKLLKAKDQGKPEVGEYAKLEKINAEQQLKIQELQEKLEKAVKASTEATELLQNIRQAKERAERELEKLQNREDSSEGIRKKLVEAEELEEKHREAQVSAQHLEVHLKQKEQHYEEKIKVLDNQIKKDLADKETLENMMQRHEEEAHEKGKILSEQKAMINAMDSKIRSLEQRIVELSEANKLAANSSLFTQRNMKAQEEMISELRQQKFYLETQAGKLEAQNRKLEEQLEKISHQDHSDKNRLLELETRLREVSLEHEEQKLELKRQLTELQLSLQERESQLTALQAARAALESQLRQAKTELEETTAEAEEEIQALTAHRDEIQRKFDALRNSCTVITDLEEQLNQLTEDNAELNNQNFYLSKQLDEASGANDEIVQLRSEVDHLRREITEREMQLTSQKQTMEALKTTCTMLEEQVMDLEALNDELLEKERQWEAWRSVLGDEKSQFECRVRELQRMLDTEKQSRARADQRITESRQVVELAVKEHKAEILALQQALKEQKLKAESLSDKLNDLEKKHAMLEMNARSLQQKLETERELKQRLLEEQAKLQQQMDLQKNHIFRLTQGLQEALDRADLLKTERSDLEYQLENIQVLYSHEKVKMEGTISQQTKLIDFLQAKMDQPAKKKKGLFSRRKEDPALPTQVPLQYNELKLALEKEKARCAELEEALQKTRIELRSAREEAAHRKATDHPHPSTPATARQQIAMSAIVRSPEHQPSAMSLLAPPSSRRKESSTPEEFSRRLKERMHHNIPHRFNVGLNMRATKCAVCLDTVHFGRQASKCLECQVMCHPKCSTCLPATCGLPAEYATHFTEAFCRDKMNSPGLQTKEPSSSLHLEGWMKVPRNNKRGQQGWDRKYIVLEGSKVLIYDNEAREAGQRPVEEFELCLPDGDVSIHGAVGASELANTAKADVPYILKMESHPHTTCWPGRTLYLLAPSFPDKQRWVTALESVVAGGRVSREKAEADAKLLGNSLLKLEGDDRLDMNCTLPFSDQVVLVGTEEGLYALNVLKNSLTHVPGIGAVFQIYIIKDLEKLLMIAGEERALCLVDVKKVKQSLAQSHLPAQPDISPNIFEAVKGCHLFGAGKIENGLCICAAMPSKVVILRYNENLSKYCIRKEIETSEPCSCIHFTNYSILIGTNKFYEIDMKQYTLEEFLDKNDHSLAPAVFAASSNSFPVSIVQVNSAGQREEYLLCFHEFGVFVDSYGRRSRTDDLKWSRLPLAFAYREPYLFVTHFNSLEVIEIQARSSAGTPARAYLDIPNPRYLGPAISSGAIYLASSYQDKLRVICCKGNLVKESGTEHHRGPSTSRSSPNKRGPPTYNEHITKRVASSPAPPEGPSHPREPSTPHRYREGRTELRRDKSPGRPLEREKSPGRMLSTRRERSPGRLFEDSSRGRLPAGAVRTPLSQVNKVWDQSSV

Chain of ERN1 (O75460 19-977): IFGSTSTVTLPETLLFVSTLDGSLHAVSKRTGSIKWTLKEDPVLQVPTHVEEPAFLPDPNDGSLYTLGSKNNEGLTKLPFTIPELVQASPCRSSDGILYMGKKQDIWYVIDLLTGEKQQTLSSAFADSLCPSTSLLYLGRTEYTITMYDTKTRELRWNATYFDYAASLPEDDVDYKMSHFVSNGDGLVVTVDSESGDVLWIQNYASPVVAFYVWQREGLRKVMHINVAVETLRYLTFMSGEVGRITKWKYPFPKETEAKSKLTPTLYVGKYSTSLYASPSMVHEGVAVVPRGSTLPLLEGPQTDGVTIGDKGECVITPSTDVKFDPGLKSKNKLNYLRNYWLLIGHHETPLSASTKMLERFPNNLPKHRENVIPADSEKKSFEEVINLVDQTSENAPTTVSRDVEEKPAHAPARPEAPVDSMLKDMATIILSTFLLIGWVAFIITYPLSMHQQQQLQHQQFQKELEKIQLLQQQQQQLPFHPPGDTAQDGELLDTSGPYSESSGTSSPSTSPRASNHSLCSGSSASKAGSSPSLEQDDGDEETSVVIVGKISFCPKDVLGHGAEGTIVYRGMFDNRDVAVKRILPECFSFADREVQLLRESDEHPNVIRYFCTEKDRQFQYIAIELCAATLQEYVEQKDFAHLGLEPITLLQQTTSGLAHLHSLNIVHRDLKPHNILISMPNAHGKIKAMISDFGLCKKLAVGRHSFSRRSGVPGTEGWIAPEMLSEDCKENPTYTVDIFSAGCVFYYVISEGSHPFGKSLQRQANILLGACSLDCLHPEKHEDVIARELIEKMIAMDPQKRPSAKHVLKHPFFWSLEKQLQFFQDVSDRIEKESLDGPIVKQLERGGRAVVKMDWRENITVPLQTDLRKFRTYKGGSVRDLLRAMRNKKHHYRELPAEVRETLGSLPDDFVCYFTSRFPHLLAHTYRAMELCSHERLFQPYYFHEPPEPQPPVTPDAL

## O=C(Nc1ccc(Oc2ncnc3[nH]ncc23)cc1)Nc1ccc(Cl)c(C(F)(F)F)c1 [Compound 1, 1-(4-(1H-pyrazolo[3,4-d]pyrimidin-4-yloxy)phenyl)-3-(4-chloro-3-(trifluoromethyl)phenyl)urea]
ERN1
  IC50: > 10 µM

## CC(C)(C)c1cc(NC(=O)Nc2ccc(Oc3ncnc4[nH]ncc34)c(F)c2)no1 [SKLB-677, 1-(4-(1H-pyrazolo[3,4-d]pyrimidin-4-yloxy)-3-fluorophenyl)-3-(5-tert-butylisoxazol-3-yl)urea]
ALK
  remaining binding at 10 µM: 4.8%
PAK4
  Kd: > 10 µM
DCAMKL1
  remaining binding at 10 µM: 100%
EPHA6
  remaining binding at 10 µM: 0%
BMPR1A
  remaining binding at 10 µM: 90%
TEC
  remaining binding at 10 µM: 100%
MRCKB
  remaining binding at 10 µM: 90%
MARK2
  remaining binding at 10 µM: 98%
ASK2
  remaining binding at 10 µM: 32%
[1]
  remaining binding at 10 µM: 100%
PIK3C2B
  remaining binding at 10 µM: 100%
CAMK1D
  remaining binding at 10 µM: 35%
PIK3CA(H1047L)
  remaining binding at 10 µM: 84%
RIOK2
  remaining binding at 10 µM: 88%
CSNK1A1
  remaining binding at 10 µM: 100%
CSNK1D
  remaining binding at 10 µM: 44%
Primary AML PBMCs; 1 nM
  average LTC-IC colony numbers of three samples compared with control: 30%
Primary AML PBMCs; 10 nM
  average LTC-IC colony numbers of three samples compared with control: 10%
Normal PBMCs
  average LTC-IC colony numbers of three normal PBMC samples: almost not changed
HIPK1
  remaining binding at 10 µM: 68%
INSRR
  remaining binding at 10 µM: 42%
[2]
  remaining binding at 10 µM: 74%
ADCK3
  remaining binding at 10 µM: 100%
THP-1
  IC50: > 10 µM
QSK
  remaining binding at 10 µM: 91%
FLT3(K663Q)
  remaining binding at 10 µM: 1.8%
AURKC
  remaining binding at 10 µM: 1.4%
PDGFRβ
  Kd: 0.0027 µM
MLK1
  remaining binding at 10 µM: 42%
CIT
  remaining binding at 10 µM: 16%
